Test results from US20230407296A1, “Method to Regulate ALOX12-AS1 IncRNA-Mediated Alteration of ALOX12 Protein and to Screen for Novel Drugs to Alter ALOX12 Protein Level” (priority 2021, published 2023).

Legend:
ALOX12-AS1-201 lncRNA = assay: Nucleo-cytoplasmic translocation of ALOX12-AS1-201 in THP-1 cells (FISH, fractionation, quantitative RT-PCR); format: cell-based, human
Experimental: Therefore, we induced differentiation of monocytic THP-1 cells to macrophage-like cells (MLCs) with 100 nM TPA [91, 92] and monitored the ALOX12 protein level as well as nucleo-cytoplasmic translocation of ALOX12-AS1-201. […] Based on these observations, we performed nuclear and cytoplasmic fractionation at 72 hours of TPA treatment.
Total RNA from different cell lines was extracted with Trizol reagent (Catalog number: 15596026; ThermoFisher Scientific, Canada) as per the manufacturer's recommended protocol. Total RNA (1-5 μg) was treated with RNase-free DNase I (Catalog number: M0303, New England Biolabs Inc., USA) at 37° C. for 15 min, subsequently heat-inactivated at 75° C. for 10 min and used for cDNA synthesis. […] Absolute quantification of ALOX12-AS1 lncRNA isoforms was performed in a Mastercycler®ep realplex real-time PCR system (Eppendorf, Hamburg, Germany) using SYBR green dye (Catalog number: S7563; ThermoFisher Scientific). […] Real-time PCR data quality control calculations were determined by the SAS program as described previously [101] and the calculated PCR efficiency was between 95%-99%. Quantitative RT-PCR was conducted for different cell-line derived RNAs, and the specificity of each amplified product was confirmed by melting curve analysis. Results were expressed as copy number of specific isoforms per 100 ng of total RNA.

ALOX12 = ALOX12 catalytic activity in cell lysates (12S-HETE ELISA); format: biochemical, human; settings: lysate of TPA-induced MLC, 50 μM arachidonic acid, 15 min, 37° C.; vehicle THP-1 lysate ~6 ng
Text: We measured ALOX12 enzyme activity of THP-1 and TPA-induced MLC cell lysates and compared them to establish the biological relevance of lncRNA-mediated downregulation of ALOX12 protein level. We used a cell-free system to avoid any limitations of intracellular arachidonic acid uptake by an in vitro cell-based system. As well, we used a platelet-derived protein-lysate as a positive control for ALOX12 enzyme activity. ALOX12 was originally discovered and characterized as an arachidonic acid peroxidizing enzyme in platelets.
ALOX12 catalytic activity was measured in a cell-free system using cell lysates derived from unactivated human platelets (positive control) and Phorbol ester (12-O-Tetradecanoylphorbol 13-acetate: TPA)/vehicle (DMSO/ethanol)-treated THP-1. ALOX12 converts arachidonate to the bioactive lipid 12(S)-hydroperoxyeicosatetraenoate (12S-HpETE). […] The cell lysates prepared in 1×PBS supplemented with 0.5% NP40, 1× Halt protease and phosphatase inhibitor cocktail 1 were incubated with 50 μM arachidonic acid (catalogue number: A0781, Tokyo Chemical Industry, USA) for 15 min at 37° C. and the amount of 12S-HETE was quantitatively measured using a commercially available Enzyme-Linked ImmunoAssay (ELISA) kit (catalogue number: ADI-900-050, Enzo Life Sciences Inc., USA) as per the manufacturer's instructions. […]

Structure (SMILES): CCCCCCCCCCCCCC(=O)O[C@@H]1[C@@H](C)[C@@]2(O)[C@@H](C=C(CO)C[C@]3(O)C(=O)C(C)=C[C@@H]23)[C@@H]2C(C)(C)[C@]12OC(C)=O [TPA, 12-O-Tetradecanoylphorbol 13-acetate]
- time to translocation of ALOX12-AS1-201 lncRNA to the cytosol (ALOX12-AS1-201 lncRNA; THP-1 cells, 100 nM TPA, FISH): ≤ 1 h
- ALOX12-AS1-201 cytosolic abundance (ALOX12-AS1-201 lncRNA; TPA-differentiated MLCs, 72 hours, vs vehicle (DMSO) treated THP-1 cells, quantitative RT-PCR): significant increase
- 12S-HETE production (ALOX12): ~1.3 ng
